The values below come from patent publication US4036984A, “Soil fungi inhibiting agent” (Nissan Chemical Industries, Ltd., priority 1974, dated 1977).

In series [1] the test system is Fusarium oxysporum f. cucumerinum. The experiment in a line: Fungicidal test by agar dilution method (colony diameter). It counts as cell-based. As to conditions: for growth / inhibition of colony compared with the control: 250-1000 ppm; for diameter of the colony: 4 days, 25° C., PSA medium. The procedure:
Reference -- Fungicidal Test by Agar Dilution Method
100 mg of the invented compound was taken in a 30 ml conical flask, to which a drop of 1:1 mixture of Solpol 2680 (surface-active agent produced by Toho Kagaku) and xylene (about 25 mg), and 1 ml of acetone were added to dissolve therein. On the other hand, 9 ml of sterilized water separately was further added to emulsify, thereby yielding an emulsion of 10,000 ppm concentration. From this emulsion an emulsion of 5,000 ppm and one of 2,500 ppm were prepared through two times dilution.
In a 100 ml conical flask, 3 ml portion each of these emulsions was taken; 27 ml of potato-sucrose-agar (PSA) medium, at 50°-60° C. was added and uniformly blended. Ten ml of the obtained mixture was poured and hardened on a 10 cm-diameter petri dish.
Meanwhile, a colony of Fusarium oxysporum f. cucumerinum separately cultivated on potato-sucrose-agar (PSA) medium was stamped out by a 4mm-diameter cork-borer and inoculated on the above-mentioned mixed medium. After 4 days of cultivation in a chamber of 25° C., the diameter of the colony was measured, the results being summarized in Table 2. A case of the colony not having grown is indicated by the sign (-).
(In agar dilution, organisms are placed on agar that contains the substance at set levels.)

The test system of series [2] is genus Bacillus. As to conditions: 2000 ppm; cited from earlier work.
For series [3], the system named is Escherichia coli. The note with it: 2000 ppm; cited from earlier work.
Series [4] deals with Micrococcus pyogenes var. aureus. As to conditions: 2000 ppm; cited from earlier work.
The test system of series [5] is Fusarium oxysporum f. cucumerinum. The experiment in a line: Test 6: control of Fusarium wilt of cucumber by spraying stalks and leaves. It counts as in vivo. As to conditions: stalks and leaves sprayed with 2000 ppm, third week of transplanting. The method, then: Test of effect of fungicide on control of Fusarium wilt of cucumber, by spraying stalks and leaves with compound.
Fusarium oxysporum f. cucumerinum which had been cultivated for 1 month at 25° C. on soil-bran medium was air-dried overnight and then sifted through a 3mm-mesh sieve.
Next, 1500 g of sterilized diluvial soil (containing compost) was placed in a Wagner pot of 1/5000a, over which the soil prepared above was spread. Cucumber seedlings of one-leaf stage (variety: "Shimoshiraznjibai") which had been separately grown in styrol cups in a greenhouse were transplanted into said Wagner pot. Each of said cucumber seedlings was singly grown in a styrol cup with 200 g of soil. Seven days before it was transplanted, it was sprayed with a 2000 ppm solution of each compound until the stalks and leaves were completely wet.
Just after transplanting and at the end of each week after transplanting, the seedling was sprinkled until completely wet with a 2000 ppm solution of the compound. All the pots were kept in the greenhouse. The test was carried out on lots of three pots each with each pot holding four seedlings.
In the third week of transplanting all the seedlings were checked for the browning of vascular and in the same way as in Test 1.

Series [6] shares this test system. The experiment in a line: Test 1: control of Fusarium wilt of cucumber (powder, pot test). As to conditions: soil treatment 500 mg (5% powder) and additional irrigation 500 ppm, fourth week of transplanting. Format: in vivo. The method, then: Test of effect of fungicide on control of Fusarium wilt of cucumber (in case of using powder) Fusarium oxysporum f. cucumerinum which had been cultivated for 1 month at 25° C. on soil-bran medium was air-dried overnight and sifted through a 3mm-mesh sieve. 10g of said culture soil was blended with 600g of sterilized diluvial soil. To 200g of this blended soil were added 1200g of sterilized diluvial soil (containing 2.65 weight % of compost) and 1000mg or 500mg of 5% powder of the invented compound; and these were uniformly mixed in a vat. Next, 1500g of sterilized diluvial soil (containing compost) was placed in a wagner pot of 1/5000 are over which was spread the soil prepared above. Cucumber seedlings of one-leaf stage (variety: "Shimoshirazujibai") which had been cultivated separately in styrol cups in a greenhouse were transplanted into said wagner pot. Each of said cucumber seedlings was singly planted in 200g of the soil placed in said styrol cup and three days before its transplanting, 20 ml of an emulsion of each compound in 300 ppm concentration was irrigated over the soil. In the case of a pot whose soil had been treated with 1000 mg of the compound (5% powder), 14 days after transplanting, 50 ml of an emulsion of the compound in 1000 ppm concentration was additionally irrigated (Test I) and in the case of a pot whose soil had been treated with 500mg of the compound (5% powder), 50 ml of an emulsion of the compound in 500 ppm concentration was additionally irrigated (Test II). The pots were all kept in a greenhouse, and the test was carried out on lots each containing three pots, each pot holding four seedlings.
Every 2 days the withered seedlings were counted and in the fourth week of transplanting, the browning degree of vascular in each seedling was measured; and the effectiveness rating was determined as follows; [formula] (Note)* Fusarium lot is a treated lot containing only Fusarium oxysporum f. cucumerinum.
Sick score is obtained as follows:
Sick score = 3 × a + 2 × b + 1 × c + 0.5 × d + 0 […]
a -- number of withered seedlings b -- number of seedlings in which the browning of vascular has reached the cotyledon part c -- number of seedlings in which the browning of vascular is short of the cotyledon part d -- number of seedlings in which only brown spots have been recognized e -- number of perfectly sound seedlings a + b + c + d + e = 12

For series [7] the test system is unchanged. Description: Test 2: control of Fusarium wilt of cucumber (emulsion, pot test). Format: in vivo. The note with it: emulsion irrigated 300 ppm, then 1000 ppm twice, third week of transplanting.
Procedure: Test of effect of fungicide on control of Fusarium wilt of cucumber (in case of using emulsion).
Fusarium oxysporum f. cucumerinum which had been cultivated for 1 month at 25° C. on soil-bran medium was air-dried overnight and then sifted through a 3 mm-mesh sieve. 15g of said culture soil and 600g of sterilized diluvial soil were blended together.
Next, 1500g of sterilized diluvial soil (containing compost) was placed in a Wagner pot of 1/5000 are, over which the soil prepared above was spread. Cucumber seedlings of one-leaf stage (variety: "Shimoshirazujibai") which had been separately cultivated in styrol cups in a greenhouse were transplanted into said Wagner pot. Each of said cucumber seedlings was singly grown in a styrol cup with 200g of soil. Seven days before it was transplanted, 20 ml of an emulsion of each compound in 300 ppm was irrigated over the soil. Just after transplanting and two weeks after transplanting 50 ml of an emulsion of the compound in 1000 ppm was additionally irrigated. All pots were kept in the greenhouse, the test being carried out on lots each containing three pots and each pot holding four seedlings.
In the third week of transplanting all the seedlings were checked for the browning degree of vascular and in the same way as in Test 1, the effectiveness rating and the sick score were determined.
Series [8] shares this test system. The experiment in a line: Fungicidal test by agar dilution method (colony diameter). As to conditions: 2.5, 5 and 10 ppm. Format: cell-based.
The subject of series [9] is rats. As to conditions: cited from earlier work.
For series [10] the following is noted: in vivo; cited from earlier work.
The subject of series [11] is pests like fleas, mosquitoes etc. As to conditions: cited from earlier work.

For the compound `CCCCCCCCCC(=O)OCCOc1ccccc1` [compound 12], the “growth / inhibition of colony compared with the control” value in series [1] was “same growth as the control”. Besides, the “diameter of the colony” value is 46 mm in [1] (250 ppm), 41 mm in series [1] (500 ppm) and 38 mm in series [1] (1000 ppm).

Take `CC(C)C(=O)OCCOc1ccccc1` [Compound No. 5]: the “diameter of the colony” value was 30 mm in [1] (250 ppm), 23 mm in [1] (500 ppm) and 17 mm in series [1] (1000 ppm). The “bactericidal effect” value in series [2], in series [3] and in series [4] was “non-bactericidal” each time.

Regarding `CCCCC(=O)OCCOc1ccccc1` [Compound No. 6], the “diameter of the colony” value in series [1] (250 ppm) is 31 mm; in [1] (500 ppm), 26 mm; in series [1] (1000 ppm), 22 mm.

Take `CCCCCC(=O)OCCOc1ccccc1` [compound 9]: the “diameter of the colony” value is reported as 33 mm in [1] (250 ppm), 30 mm in [1] (500 ppm) and 22 mm in [1] (1000 ppm).

With `CC(CC(=O)OCCOc1ccccc1)CC(C)(C)C` (stereo not shown) [compound 14], the “diameter of the colony” value came to 38 mm in [1] (250 ppm), 38 mm in [1] (500 ppm) and 35 mm in [1] (1000 ppm).

With `CCCCCCCC(=O)OCCOc1ccccc1` [compound 11], the “diameter of the colony” value came out at 36 mm in series [1] (250 ppm), 32 mm in series [1] (500 ppm) and 29 mm in series [1] (1000 ppm).

As for `CC(C)(O)CC(=O)OCCOc1ccccc1` [compound 37], the “Effectiveness Rating, 2000 ppm” value in series [5] is listed as 40.

Regarding `C=CC(=O)OCCOc1ccccc1` [Compound No. 23, β-phenoxyethylacrylate], the “Effectiveness Rating, 2000 ppm” value in [5] was determined as 30.

For the compound `CCCCCCCCCCCC(=O)OCCOc1ccccc1` [compound 13], the “growth / inhibition of colony compared with the control” value in [1] is listed as “same growth as the control”. In addition, the “diameter of the colony” value was 49 mm in series [1] (250 ppm), 45 mm in series [1] (500 ppm) and 40 mm in series [1] (1000 ppm).

Turning to `CC(C)C(=O)C(=O)OCCOc1ccccc1` [Compound No. 45, β-phenoxyethyl 2-oxo-3-methyl-butanoate], the “Effectiveness Rating, 2000 ppm” value in [5] is listed as 76.

`CCC(=O)OCCOc1ccccc1` [Compound No. 3]: the “diameter of the colony” value is given as 25 mm in series [1] (250 ppm), 20 mm in [1] (500 ppm) and 9 mm in series [1] (1000 ppm). For the same compound, the “Effectiveness Rating II” value in series [6] amounted to 32.

Regarding `CSCC(=O)OCCOc1ccccc1` [Compound No. 67, β-phenoxyethyl S-methylglycolate], the “Effectiveness Rating” value in series [7] was 89.

For `CCC(C)C(=O)OCCOc1ccccc1` (stereo not shown) [Compound No. 7], the “diameter of the colony” value in series [1] (250 ppm) amounted to 25 mm; in series [1] (500 ppm) it was 23 mm; in series [1] (1000 ppm) it was 16 mm.

For the compound `CCCCNC(=O)n1c(NC(=O)OC)nc2ccccc21` [Benomyl, methyl-1-(butylcarbamonyl)-2-benzimidazolcarbamate, reference compound], the “Effectiveness Rating II” value in series [6] is 44. Also, in series [8], the “growth of the colony” value is reported as “no growth of the colony was evident”.

`CCCC(=O)OCCOc1ccccc1` [Compound No. 4]: the “diameter of the colony” value amounted to 32 mm in series [1] (250 ppm), 27 mm in series [1] (500 ppm) and 22 mm in series [1] (1000 ppm). Further, the “Effectiveness Rating II” value in series [6] is reported as 30.

Turning to `CC(C)CC(=O)OCCOc1ccccc1` [Compound No. 8], the “diameter of the colony” value in series [1] (250 ppm) is reported as 24 mm; in series [1] (500 ppm), 19 mm; in series [1] (1000 ppm), 15 mm. In addition, the “Effectiveness Rating II” value in series [6] is listed as 50.

Take `CCCCCCC(=O)OCCOc1ccccc1` [compound 10]: the “diameter of the colony” value in [1] (250 ppm) is 33 mm; in series [1] (500 ppm), 28 mm; in series [1] (1000 ppm), 24 mm.

With `CC(=O)OCCOc1ccccc1` [Compound No. 2], the “diameter of the colony” value is recorded as 37 mm in series [1] (250 ppm) and 26 mm in series [1] (500 ppm). The “Effectiveness Rating II” value in series [6] was found to be 80. Besides, the “Effectiveness Rating, 2000 ppm” value in series [5] amounted to 67. Moreover, the “LD50, acute oral toxicity” value in [9] is 4900 mg/kg. In addition, in series [10], the “skin cancer” value is given as “not likely to cause skin cancer”. Moreover, the “repellency” value in [11] was “feebly repellant”.

As to `O=COCCOc1ccccc1` [Compound No. 1], the “diameter of the colony” value in [1] (250 ppm) amounted to 40 mm; in series [1] (500 ppm), 30 mm; in series [1] (1000 ppm) it was 10 mm.

`CC(C)(C)C(=O)OCCOc1ccccc1` [compound 15]: the “diameter of the colony” value in series [1] (250 ppm) is on record as 19 mm; in series [1] (500 ppm) it was 17 mm; in [1] (1000 ppm), 13 mm.

In the case of `CC(C)=CC(=O)OCCSc1ccccc1` [compound 74], in series [5], the “Effectiveness Rating, 2000 ppm” value is listed as 62.
